Structures can show the parent of a compound that is named as a salt.
Experiments:
[1] = tested on: TCC97-7 bladder cancer tumour cells carrying the Ser249Cys mutation of FGF receptor 3; experiment: Inhibition of serum-induced proliferation of TCC97-7 bladder cancer cells (count of Hoechst 33342-labelled nuclei after 3 days); format: cell-based; settings: TCC97-7 cells in presence of serum; for inhibition at 0.01 µM / inhibition at 0.1 µM / inhibition at 1 µM / inhibition at 10 µM: 72 h
Procedure: To do this, 2000 cells are seeded in the morning in 50 μl of complete medium (Ham-F/12, 1% FCS, 2 mM glutamine, non-essential amino acids, sodium pyruvate, 1% insulin/transferrin/selenium, hydrocortisone). In the evening, 50 μl of the various compounds are added at 0.02, 0.2, 2 or 20 μM after dilution in complete culture medium in order to obtain final concentrations of 0.01, 0.1, 1 and 10 μM. After 3 days, the cell proliferation is evaluated by measuring the number of nuclei at the bottom of each well corresponding to a number of cells. The nuclei are detected by means of labelling with Hoechst 33342 (Invitrogen, ref H3570). 100 μl of Hoechst 33342 diluted to 1/5000th in PBS are added to each well for 30 min at ambient temperature on non-fixed cells. The nuclei are detected by fluorescence at 350 nm at ×2 magnification with an Operetta (PerkinElmer) using the Acapella (PerkinElmer) imaging software and analysed using the Columbus (PerkinElmer) image analysis software. The percentage inhibition of the cell proliferation is calculated by considering the number of nuclei present in the wells in which the TCC97-7 cells are cultured in the absence of FGF-R antagonists to be 0% inhibition. 100% inhibition would correspond to a well no longer containing cells.

[2] = Cytotoxic effect: percentage of permeabilized (very fluorescent, Hoechst 33342) TCC97-7 cells; format: cell-based; settings: human, read-out: Cytotoxicity (% of permeable cells)
Procedure: (§1) In parallel to their antiproliferative capacity, the potential cytotoxic effect of the FGF-R antagonists is measured by means of quantifying the number of cells of which the membranes are permeabilized. The appearance of pores in the plasma membrane of the cells corresponds to a state of cell death which enables the Hoechst 33342 to penetrate more easily into the cell. This is reflected by a very strong increase in the amount of fluorescence detected in the nuclei. The percentage of cells in a state of cell death is calculated by the ratio between the number of very fluorescent nuclei to the total number of nuclei, multiplied by 100. The observations are carried out in the same way as the quantification of the nuclei for the cell proliferation.

[3] = tested on: TCC97-7 bladder cancer cells carrying the Ser249Cys mutation of FGF receptor 3; experiment: Reduction of intracellular ATP content of TCC97-7 cells (Cell Titer-Glo, 3 days, serum-supplemented medium); format: cell-based; settings: TCC97-7 cells in presence of serum; for inhibition at 0.1 µM / inhibition at 1 µM / inhibition at 10 µM: 72 h, read-out: Inhibition of the amount of intracellular ATP (%)
Procedure: Evaluation of the Capacity of the FGF-R Antagonists to Reduce the ATP Content of TCC97-7 Bladder Cancer Cells Carrying the Ser249Cys Mutation of FGF Receptor 3, Cultured in a Serum-Supplemented Medium
To do this, 3000 cells are seeded in 50 μl of complete medium (Ham-F/12, 1% FCS, […], non-essential amino acids, sodium pyruvate, 1% insulin/transferrin/selenium, hydrocortisone). 16 hours later, 50 μl of the various compounds are added at 0.2, 2, 20 and 60 μM after dilution in complete culture medium in order to obtain final concentrations of 0.1, 1, 10 and 30 μM. After 3 days, the ATP content of the cells is measured using the Cell Titer-Glo® Luminescent Cell Viability Assay kit (Promega, France) according to the supplier's recommendations. The percentage inhibition of the amount of intracellular ATP is calculated by considering the ATP content of the cells cultured in the absence of antagonist to be 0% inhibition. 100% inhibition would correspond to a well in which the ATP content is zero.

[4] = tested on: TCC97-7 bladder cancer tumour cells carrying the Ser249Cys mutation of FGF receptor 3; experiment: Cytotoxic effect: percentage of permeabilized (very fluorescent, Hoechst 33342) TCC97-7 cells; format: cell-based; settings: 3 days
Procedure: as §1

| melting point | Structure (SMILES) | inhibition at 0.01 µM ([1]; 0.01 μM) | inhibition at 0.1 µM ([1]; 0.1 μM) | inhibition at 1 µM ([1]; 1 μM) | inhibition at 10 µM ([1]; 10 μM) | cytotoxicity at 3 days, 0.01 µM [2] | cytotoxicity at 3 days, 0.1 µM [2] | cytotoxicity at 3 days, 1 µM [2] | cytotoxicity at 3 days, 10 µM [2] | inhibition at 0.1 µM ([3]; 0.1 μM) | inhibition at 1 µM ([3]; 1 μM) | inhibition at 10 µM ([3]; 10 μM) | further results |
| --- | --- | --- | --- | --- | --- | --- | --- | --- | --- | --- | --- | --- | --- |
| 267 °C | Cn1c(=O)n(Cc2ccc(F)cc2)c(=O)c2cc(C(=O)c3nc(-c4cccnc4)c4ccccn34)ccc21 (as salt: hydrochloride) [compound 112, 3-(4-Fluorobenzyl)-1-methyl-6-[(1-pyridin-3-ylimidazo[1,5-a]pyridin-3-yl)carbonyl]quinazoline-2,4(1H, 3H)-dione] | – | – | – | – | – | – | – | – | – | – | – | – |
| 384 °C | CCCn1c(=O)[nH]c2ccc(C(=O)c3ncc4ccc(C(=O)O)cn34)cc2c1=O [compound 8, 3-[(2,4-Dioxo-3-propyl-1,2,3,4-tetrahydroquinazolin-6-yl)carbonyl]imidazo[1,5-a]pyridine-6-carboxylic acid] | – | – | – | – | – | – | – | – | – | – | – | – |
| 289 °C | O=C(c1ccc2nc[nH]c(=O)c2c1)c1ncc2ccccn12 [compound 3, 6-(Imidazo[1,5-a]pyridin-3-ylcarbonyl)quinazolin-4(3H)-one] | – | – | – | – | – | – | – | – | – | – | – | – |
| 334 °C | CCCn1c(=O)[nH]c2ccc(C(=O)c3nc(NS(C)(=O)=O)c4ccccn34)cc2c1=O [compound 13, N-{3-[(2,4-dioxo-3-propyl-1,2,3,4-tetrahydroquinazolin-6-yl)carbonyl]imidazo[1,5-a]pyridin-1-yl}methanesulphonamide] | – | – | – | – | – | – | – | – | – | – | – | – |

The next lines start with the molecule.

| Structure (SMILES) | melting point | inhibition at 0.01 µM ([1]; 0.01 μM) | inhibition at 0.1 µM ([1]; 0.1 μM) | inhibition at 1 µM ([1]; 1 μM) | inhibition at 10 µM ([1]; 10 μM) | cytotoxicity at 3 days, 0.01 µM [2] | cytotoxicity at 3 days, 0.1 µM [2] | cytotoxicity at 3 days, 1 µM [2] | cytotoxicity at 3 days, 10 µM [2] | inhibition at 0.1 µM ([3]; 0.1 μM) | inhibition at 1 µM ([3]; 1 μM) | inhibition at 10 µM ([3]; 10 μM) | further results |
| --- | --- | --- | --- | --- | --- | --- | --- | --- | --- | --- | --- | --- | --- |
| Cl.Cn1c(=O)n(Cc2ccc(F)cc2)c(=O)c2cc(C(=O)c3nc(-c4cccc(C(=O)OCCN5CCOCC5)c4)c4ccccn34)ccc21 | 215 °C | – | – | – | – | – | – | – | – | – | – | – | – |
| CN(C)CCNC(=O)c1cccc(-c2nc(C(=O)c3ccc4c(c3)c(=O)n(Cc3ccc(F)cc3)c(=O)n4C)n3ccccc23)c1.Cl [compound 116, N-[2-(dimethylamino)ethyl]-3-(3-{[3-(4-fluorobenzyl)-1-methyl-2,4-dioxo-1,2,3,4-tetrahydroquinazolin-6-yl]carbonyl}imidazo[1,5-a]pyridin-1-yl)benzamide hydrochloride] | 247 °C | -1% | -3% | 22% | 83% | 2% | 2% | 2% | 3% | 6% | 9% | 95% | – |
| CCCn1c(=O)[nH]c2ccc(C(=O)c3nc(-c4cccc(C(N)=O)c4)c4ccccn34)cc2c1=O [compound 29, 3-{3[(2,4-Dioxo-3-propyl-1,2,3,4-tetrahydroquinazolin-6-yl)carbonyl]imidazo[1,5-a]pyridin-1-yl}benzamide] | – | 6% | 9% | 45% | 71% | 3% | 3% | 8% | 17% | -4% | 8% | 24% | – |
| Cn1c(=O)n(Cc2ccc(F)cc2)c(=O)c2cc(C(=O)c3nc(-c4cccnc4)c4ccccn34)ccc21 [compound 112, 3-(4-Fluorobenzyl)-1-methyl-6-[(1-pyridin-3-ylimidazo[1,5-a]pyridin-3-yl)carbonyl]quinazoline-2,4(1H, 3H)-dione] | – | 8% | 18% | 61% | 84% | 4% | 4% | 16% | 11% | -3% | 51% | 88% | – |
| CCCn1c(C)nc2ccc(C(=O)c3nc(-c4cccc(C(N)=O)c4)c4ccccn34)cc2c1=O [compound 55, 3-{3-[(2-Methyl-4-oxo-3-propyl-3,4-dihydroquinazolin-6-yl)carbonyl]imidazo[1,5-a]pyridin-1-yl}benzamide] | – | 3% | -2% | 29% | 47% | 5% | 5% | 6% | 6% | 11% | 17% | 57% | – |
| Cn1c(=O)n(CCc2ccc(F)cc2)c(=O)c2cc(C(=O)c3nc(-c4cccc(C(=O)[O-])c4)c4ccccn34)ccc21.[Na+] [compound 148] | – | – | – | – | – | – | – | – | – | – | – | – | Inhibition of proliferation (%) ([1]; 0.01 μM): 12%; Inhibition of proliferation (%) ([1]; 0.1 μM): 6%; Inhibition of proliferation (%) ([1]; 1 μM): 15%; Inhibition of proliferation (%) ([1]; 10 μM): 81%; Cytotoxicity (% of permeable cells) ([4]; 0.01 μM): 4%; Cytotoxicity (% of permeable cells) ([4]; 0.1 μM): 4%; Cytotoxicity (% of permeable cells) ([4]; 1 μM): 4%; Cytotoxicity (% of permeable cells) ([4]; 10 μM): 11%; Inhibition of the amount of intracellular ATP (%) ([3]; 0.1 μM): 1%; Inhibition of the amount of intracellular ATP (%) ([3]; 1 μM): 8%; Inhibition of the amount of intracellular ATP (%) ([3]; 10 μM): 66% |

— patent publication US9732078B2, “Therapeutic use of imidazopyridine derivatives” (SANOFI, priority 2012, dated 2017)
